Earlier results in patent publication US12419890B2, “Administration of sumo-activating enzyme inhibitor and checkpoint inhibitors” (Takeda Pharmaceutical Company Limited, priority 2019, dated 2025).
Where two headings read alike, the source gives them in different places.

Legend:
[1] = system: advanced NSCLC; conditions: cited from earlier work
[2] = system: advanced cervical cancer, PD-L1 CPS>=1; conditions: cited from earlier work
[3] = system: MSI-H CRC; conditions: MSI-H CRC patients that progressed to fluoropyrimidine, oxaliplatin, and irinotecan containing regimens; cited from earlier work
[4] = system: metastatic CRC; conditions: stated jointly for both drugs; cited from earlier work
[5] = system: recurrent or metastatic cervical cancer; conditions: cited from earlier work
[6] = 200 mg IV every three weeks, 77 patients

Q: For pembrolizumab, which “5-year OS rate” value ([1]; previously treated patients, PD-L1 expression 1 to 49%) is on record?
A: The value was 12.6%.

Q: What about the “5-year OS rate” value ([1]; previously treated patients, PD-L1 expression <1%) of the same compound?
A: The value was 3.5%.

Q: What about the “5-year OS rate” value ([1]; previously treated patients, PD-L1 expression >=50%) of the same compound?
A: Its value is 25%.

Q: And the “5-year OS rate” value ([1]; treatment-naive patients with PD-L1 expression >=50%)?
A: Its value is 29.6%.

Q: And the “5-year OS rate” value ([1]; treatment-naive patients, PD-L1 <50%)?
A: The value was 15.7%.

Q: And the “complete responses (CRs)” value [2, 6]?
A: The value was 2.6%.

Q: What about the “partial responses (PRs)” value [2, 6] of the same compound?
A: Its value is 11.7%.

Q: What about the “overall response rate (ORR)” value ([2]; 200 mg IV every three weeks, 77 patients, median follow-up 11.7 months, 95% CI 7.4, 24.1) of the same compound?
A: Its value is 14.3%.

Q: And the “estimated median duration of response (DOR)” value ([2]; 11 patients with a response by independent review)?
A: Its value is “not reached”.

Q: And the “responders with a DOR of greater than or equal to 6 months” value ([2]; 11 patients with a response)?
A: The value was 91%.

Q: What about the ORR [3] of the same compound?
A: Its ORR is 36%.

Q: What about the “responders whose DOR lasted more than six months” value [3] of the same compound?
A: The value was 78%.

Q: With nivolumab as the compound, how does the ORR [3] read?
A: Its ORR is 28%.

Q: What about the “responders whose DOR lasted more than six months” value [3] of the same compound?
A: The value was 67%.

Q: Which results are given for CNC(=O)c1cc(Oc2ccc(NC(=O)Nc3ccc(Cl)c(C(F)(F)F)c3)c(F)c2)ccn1 [regorafenib]?
A: median OS [4]: 7 months; median PFS [4]: 2 months

Q: Which “HR for PFS” value ([5]; bevacizumab added to standard first line chemotherapy vs chemotherapy alone, 95% CI 0.54-0.82) does the source give for bevacizumab here?
A: The value was 0.67.

Q: What about the “HR for OS” value ([5]; bevacizumab added to standard first line chemotherapy vs chemotherapy alone, 95% CI 0.54-0.95) of the same compound?
A: The value was 0.71.

Q: What about the “median PFS” value ([5]; bevacizumab added to standard first line chemotherapy, vs 5.9 months chemotherapy alone) of the same compound?
A: The value was 8.2 months.

Q: What about the “median OS” value ([5]; bevacizumab added to standard first line chemotherapy, vs 13.3 months chemotherapy alone) of the same compound?
A: The value was 17.0 months.

Q: Which results are given for trifluridine-tipiracil?
A: median OS [4]: 7 months; median PFS [4]: 2 months
